Reference: ChEMBL document CHEMBL1146884, “Effect of lysine at C-terminus of the Dmt-Tic opioid pharmacophore” (J Med Chem, 2006)
Where a SMILES comes first, the peptide text is derived from it. [ ]: non-standard residue; d: D form. The star is where a group is joined. Dmt = Cc1cc(O)cc(C)c1C[C@H](N)C(=O)O; Tic = O=C(O)[C@@H]1Cc2ccccc2CN1; Cbz = O=C(OCc1ccccc1)*; NHBn = c1ccc(CN*)cc1; NHPh = c1ccc(N*)cc1

What was measured:
[1] = molecular target: T1, Delta-type opioid receptor (Mus musculus, UniProt P32300); test: Antagonist activity at delta opioid receptor assessed as inhibition of deltorphin-2-induced contraction of mouse vas deferens
T1 sequence (P32300 whole entry): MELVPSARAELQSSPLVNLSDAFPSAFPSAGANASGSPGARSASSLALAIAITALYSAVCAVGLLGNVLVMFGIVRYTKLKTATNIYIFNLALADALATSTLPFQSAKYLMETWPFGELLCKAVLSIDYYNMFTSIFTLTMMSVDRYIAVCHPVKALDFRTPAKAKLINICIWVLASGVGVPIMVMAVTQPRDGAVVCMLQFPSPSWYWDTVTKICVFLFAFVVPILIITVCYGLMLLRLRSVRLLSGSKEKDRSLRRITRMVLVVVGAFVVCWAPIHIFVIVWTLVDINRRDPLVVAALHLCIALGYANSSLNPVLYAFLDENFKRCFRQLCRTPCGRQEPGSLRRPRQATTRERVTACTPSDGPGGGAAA

[2] = molecular target: Delta-type opioid receptor (Rattus norvegicus, UniProt P33533); test: Displacement of [3H]deltorphin2 from delta opioid receptor in Sprague-Dawley rat brain P2 synaptosomal membrane
Sequence of Delta-type opioid receptor (Rattus norvegicus, UniProt P33533) (P33533 whole entry): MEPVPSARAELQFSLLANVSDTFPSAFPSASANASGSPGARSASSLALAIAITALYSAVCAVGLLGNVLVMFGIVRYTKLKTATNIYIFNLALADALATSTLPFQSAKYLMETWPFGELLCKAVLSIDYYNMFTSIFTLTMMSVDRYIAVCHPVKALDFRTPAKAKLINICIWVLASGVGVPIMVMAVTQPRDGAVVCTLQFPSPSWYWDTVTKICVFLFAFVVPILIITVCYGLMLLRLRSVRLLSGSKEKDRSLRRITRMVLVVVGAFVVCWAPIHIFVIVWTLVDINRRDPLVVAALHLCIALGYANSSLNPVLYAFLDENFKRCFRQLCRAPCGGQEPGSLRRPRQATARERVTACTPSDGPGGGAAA

Mu-type opioid receptor [3] = molecular target: Mu-type opioid receptor (Rattus norvegicus, UniProt P33535); test: Displacement of [3H]DAMGO from mu opioid receptor in Sprague-Dawley rat brain P2 synaptosomal membrane
Sequence of Mu-type opioid receptor (Rattus norvegicus, UniProt P33535) (P33535 whole entry): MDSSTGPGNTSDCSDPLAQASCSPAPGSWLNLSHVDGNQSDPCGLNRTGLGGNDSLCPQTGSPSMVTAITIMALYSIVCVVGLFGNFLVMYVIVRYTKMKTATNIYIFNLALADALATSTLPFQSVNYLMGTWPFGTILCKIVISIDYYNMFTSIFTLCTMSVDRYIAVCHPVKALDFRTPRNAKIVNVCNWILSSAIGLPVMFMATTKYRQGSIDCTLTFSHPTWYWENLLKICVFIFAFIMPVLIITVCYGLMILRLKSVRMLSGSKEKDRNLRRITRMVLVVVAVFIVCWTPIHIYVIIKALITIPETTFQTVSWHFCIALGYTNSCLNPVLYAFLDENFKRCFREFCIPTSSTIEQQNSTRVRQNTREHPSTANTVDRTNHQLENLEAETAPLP

[4] = molecular target: Opioid receptors; mu & delta (Rattus norvegicus) (UniProt P33533+P33535); test: Selectivity for delta opioid receptor over mu opioid receptor in Sprague-Dawley rat brain P2 synaptosomal membrane
Sequence of Opioid receptors; mu & delta (Rattus norvegicus) (P33533 whole entry, looked up): as the sequence (P33533 whole entry) above
Sequence of Opioid receptors; mu & delta (Rattus norvegicus) (P33535 whole entry, looked up): as the sequence (P33535 whole entry) above

Mu-type opioid receptor [5] = molecular target: T2, Mu-type opioid receptor (Cavia porcellus, UniProt P97266); test: Antagonist activity at mu opioid receptor assessed as inhibition of endomorphin-2-induced contraction of guinea pig ileum; assay type: functional, tissue-based; conditions: read-out: pA2 (converted)
T2 sequence (P97266 whole entry): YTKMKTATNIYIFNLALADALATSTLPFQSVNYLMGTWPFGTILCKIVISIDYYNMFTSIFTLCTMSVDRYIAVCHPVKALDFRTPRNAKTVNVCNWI

Mu-type opioid receptor [6] = molecular target: T2, Mu-type opioid receptor; test: Agonist activity at mu opioid receptor assessed as inhibition of electrically-evoked contraction of guinea pig ileum; assay type: functional, tissue-based
[7] = molecular target: T1, Delta-type opioid receptor; test: Agonist activity at delta opioid receptor assessed as inhibition of electrically-evoked contraction of mouse vas deferens; assay type: functional, tissue-based

Compound | Kb [1] [nM] | Ki [2] [nM] | Ki (Mu-type opioid receptor [3]) [nM] | Ratio Ki [4] | Kb (Mu-type opioid receptor [5]) [nM] | IC50 (Mu-type opioid receptor [6]) [nM] | IC50 [7] [nM]
Cc1cc(O)cc(C)c1C[C@H](N)C(=O)N1Cc2ccccc2C[C@H]1C(=O)NCC(=O)O (H-[Dmt]-[Tic]-Gly-OH) | 1.41 | 1.38 | 529 | 383 |  |  | 
Cc1cc(O)cc(C)c1C[C@H](N)C(=O)N1Cc2ccccc2C[C@H]1C(=O)N[C@@H](CCCCNC(=O)OCc1ccccc1)C(=O)NCc1ccccc1 (H-[Dmt]-[Tic]-Lys(Cbz)-NHBn) | 617 | 0.31 | 4.41 | 14 | 1510 | > 10000 | > 10000
Cc1cc(O)cc(C)c1C[C@H](N)C(=O)N1Cc2ccccc2C[C@H]1C(=O)N[C@@H](CCCCN)c1nc2ccccc2[nH]1 |  | 0.49 | 0.16 |  |  | 39.7 | > 10000
Cc1cc(O)cc(C)c1C[C@H](N)C(=O)N1Cc2ccccc2C[C@H]1C(=O)N[C@@H](CCCCN)C(=O)NCc1ccccc1 (H-[Dmt]-[Tic]-Lys-NHBn) | 977 | 0.5 | 4.05 | 8 | 11 | > 10000 | > 10000
CC(=O)NCCCC[C@H](NC(=O)[C@@H]1Cc2ccccc2CN1C(=O)[C@@H](N)Cc1c(C)cc(O)cc1C)c1nc2ccccc2[nH]1 |  | 0.18 | 0.13 |  |  | 53.9 | > 10000
CC(=O)NCCCC[C@H](NC(=O)[C@@H]1Cc2ccccc2CN1C(=O)[C@@H](N)Cc1c(C)cc(O)cc1C)C(=O)NCc1ccccc1 (H-[Dmt]-[Tic]-Lys(Ac)-NHBn) | 0.0398 | 0.068 | 5.5 | 81 | 6.92 | > 10000 | > 10000
Cc1cc(O)cc(C)c1C[C@H](N)C(=O)N1Cc2ccccc2C[C@H]1C(=O)N[C@@H](CCCCNC(=O)OCc1ccccc1)C(=O)Nc1ccccc1 (H-[Dmt]-[Tic]-Lys(Cbz)-NHPh) | 1700 | 0.57 | 1.47 | 3 |  | 438 | > 10000
CC(=O)NCCCC[C@H](NC(=O)[C@@H]1Cc2ccccc2CN1C(=O)[C@@H](N)Cc1c(C)cc(O)cc1C)C(=O)Nc1ccccc1 (H-[Dmt]-[Tic]-Lys(Ac)-NHPh) | 0.001 | 0.13 | 0.63 | 5 |  | 1250 | > 10000
Cc1cc(O)cc(C)c1C[C@H](N)C(=O)N1Cc2ccccc2C[C@H]1C(=O)N[C@@H](CCCCN)C(=O)Nc1ccccc1 (H-[Dmt]-[Tic]-Lys-NHPh) | 4170 | 0.42 | 0.93 | 2 |  | 1250 | > 10000
Cc1cc(O)cc(C)c1C[C@H](N)C(=O)N1Cc2ccccc2C[C@H]1C(=O)N[C@H](CCCCNC(=O)OCc1ccccc1)c1nc2ccccc2[nH]1 | > 10000 | 0.4 | 0.15 |  |  | 62.5 | > 10000
Cc1cc(O)cc(C)c1C[C@H](N)C(=O)N1Cc2ccccc2C[C@H]1C(=O)N[C@@H](CCCCNC(=O)OCc1ccccc1)c1nc2ccccc2[nH]1 | > 10000 | 0.64 | 0.37 |  |  | 375 | 9050
